Data taken from PMC9851200, “Multiparameter phenotypic screening for endogenous TFEB and TFE3 translocation identifies novel chemical series modulating lysosome function” (Autophagy, 2022).

Assays:
SH-SY5Y cells [1] = details: human, SH-SY5Y cells, 24 h, 1 µM
endogenous TFEB = test: TFEB nuclear translocation, immunocytochemistry high-content imaging; format: cell-based
SH-SY5Y cells [2] = test: Chemotype enrichment analysis of PKIS2 primary screen hit categories
endogenous TFE3 = test: TFE3 nuclear translocation, immunocytochemistry high-content imaging; format: cell-based
SH-SY5Y cells [3] = tested on: SH-SY5Y cells; further: reference of the scale not given here
SH-SY5Y cells [4] = details: human, SH-SY5Y cells, 24 h, 1 µM; remark: listed apart in the source
Description: Total cell lysis with 5 µL 5% Triton-X 100 (Sigma-Aldrich, T8787) is used as a positive control for the assay and toxicity is expressed as a percentage of luminescence under DMSO conditions.

CSNK1D = CSNK1D (Homo sapiens, UniProt P48730); details: cited from earlier work
PRKD2 = biological target: T1, PRKD2 (Homo sapiens, UniProt Q9BZL6); details: cited from earlier work
T1 sequence (Q9BZL6 1-878): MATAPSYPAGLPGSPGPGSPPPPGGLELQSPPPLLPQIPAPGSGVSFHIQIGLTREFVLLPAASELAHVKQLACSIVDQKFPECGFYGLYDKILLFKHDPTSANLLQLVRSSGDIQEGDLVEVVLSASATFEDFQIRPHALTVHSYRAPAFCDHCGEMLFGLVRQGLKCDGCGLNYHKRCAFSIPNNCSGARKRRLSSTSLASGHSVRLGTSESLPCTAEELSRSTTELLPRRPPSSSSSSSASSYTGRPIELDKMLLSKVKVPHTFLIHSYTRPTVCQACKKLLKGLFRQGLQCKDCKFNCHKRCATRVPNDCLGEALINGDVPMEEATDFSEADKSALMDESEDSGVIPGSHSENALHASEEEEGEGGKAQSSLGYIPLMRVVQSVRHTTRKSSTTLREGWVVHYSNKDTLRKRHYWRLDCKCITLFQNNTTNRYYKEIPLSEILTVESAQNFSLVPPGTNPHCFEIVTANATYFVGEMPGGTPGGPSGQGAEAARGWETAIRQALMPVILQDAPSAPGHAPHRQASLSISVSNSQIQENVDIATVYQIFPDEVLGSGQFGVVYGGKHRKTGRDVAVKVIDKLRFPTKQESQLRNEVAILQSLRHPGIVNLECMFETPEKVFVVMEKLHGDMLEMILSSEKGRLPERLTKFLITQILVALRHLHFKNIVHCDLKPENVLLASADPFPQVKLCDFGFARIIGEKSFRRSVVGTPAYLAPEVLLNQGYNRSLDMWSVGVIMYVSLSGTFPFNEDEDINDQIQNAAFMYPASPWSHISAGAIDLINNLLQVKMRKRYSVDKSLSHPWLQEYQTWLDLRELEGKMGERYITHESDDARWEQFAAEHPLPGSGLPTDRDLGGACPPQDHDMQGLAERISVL

BMPR1B = BMPR1B (Homo sapiens, UniProt O00238); details: cited from earlier work
Chain of BMPR1B (O00238 14-502): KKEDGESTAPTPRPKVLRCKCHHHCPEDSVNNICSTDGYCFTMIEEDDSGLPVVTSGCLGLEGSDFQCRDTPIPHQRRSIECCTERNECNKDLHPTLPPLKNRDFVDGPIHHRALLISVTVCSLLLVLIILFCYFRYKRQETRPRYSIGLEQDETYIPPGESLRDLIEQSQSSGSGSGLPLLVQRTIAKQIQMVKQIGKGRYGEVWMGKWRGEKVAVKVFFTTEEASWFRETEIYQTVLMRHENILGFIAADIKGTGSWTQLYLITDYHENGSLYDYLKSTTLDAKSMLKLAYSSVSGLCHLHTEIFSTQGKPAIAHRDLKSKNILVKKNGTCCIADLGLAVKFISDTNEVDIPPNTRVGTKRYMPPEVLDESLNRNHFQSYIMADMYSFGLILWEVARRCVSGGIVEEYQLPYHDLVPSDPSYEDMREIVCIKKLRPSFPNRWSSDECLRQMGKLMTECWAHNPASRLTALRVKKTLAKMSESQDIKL

PIKFYVE = PIKFYVE (Homo sapiens, UniProt Q9Y2I7); details: cited from earlier work
CIT = CIT (Homo sapiens, UniProt O14578); details: cited from earlier work
Chain of CIT (O14578 whole entry): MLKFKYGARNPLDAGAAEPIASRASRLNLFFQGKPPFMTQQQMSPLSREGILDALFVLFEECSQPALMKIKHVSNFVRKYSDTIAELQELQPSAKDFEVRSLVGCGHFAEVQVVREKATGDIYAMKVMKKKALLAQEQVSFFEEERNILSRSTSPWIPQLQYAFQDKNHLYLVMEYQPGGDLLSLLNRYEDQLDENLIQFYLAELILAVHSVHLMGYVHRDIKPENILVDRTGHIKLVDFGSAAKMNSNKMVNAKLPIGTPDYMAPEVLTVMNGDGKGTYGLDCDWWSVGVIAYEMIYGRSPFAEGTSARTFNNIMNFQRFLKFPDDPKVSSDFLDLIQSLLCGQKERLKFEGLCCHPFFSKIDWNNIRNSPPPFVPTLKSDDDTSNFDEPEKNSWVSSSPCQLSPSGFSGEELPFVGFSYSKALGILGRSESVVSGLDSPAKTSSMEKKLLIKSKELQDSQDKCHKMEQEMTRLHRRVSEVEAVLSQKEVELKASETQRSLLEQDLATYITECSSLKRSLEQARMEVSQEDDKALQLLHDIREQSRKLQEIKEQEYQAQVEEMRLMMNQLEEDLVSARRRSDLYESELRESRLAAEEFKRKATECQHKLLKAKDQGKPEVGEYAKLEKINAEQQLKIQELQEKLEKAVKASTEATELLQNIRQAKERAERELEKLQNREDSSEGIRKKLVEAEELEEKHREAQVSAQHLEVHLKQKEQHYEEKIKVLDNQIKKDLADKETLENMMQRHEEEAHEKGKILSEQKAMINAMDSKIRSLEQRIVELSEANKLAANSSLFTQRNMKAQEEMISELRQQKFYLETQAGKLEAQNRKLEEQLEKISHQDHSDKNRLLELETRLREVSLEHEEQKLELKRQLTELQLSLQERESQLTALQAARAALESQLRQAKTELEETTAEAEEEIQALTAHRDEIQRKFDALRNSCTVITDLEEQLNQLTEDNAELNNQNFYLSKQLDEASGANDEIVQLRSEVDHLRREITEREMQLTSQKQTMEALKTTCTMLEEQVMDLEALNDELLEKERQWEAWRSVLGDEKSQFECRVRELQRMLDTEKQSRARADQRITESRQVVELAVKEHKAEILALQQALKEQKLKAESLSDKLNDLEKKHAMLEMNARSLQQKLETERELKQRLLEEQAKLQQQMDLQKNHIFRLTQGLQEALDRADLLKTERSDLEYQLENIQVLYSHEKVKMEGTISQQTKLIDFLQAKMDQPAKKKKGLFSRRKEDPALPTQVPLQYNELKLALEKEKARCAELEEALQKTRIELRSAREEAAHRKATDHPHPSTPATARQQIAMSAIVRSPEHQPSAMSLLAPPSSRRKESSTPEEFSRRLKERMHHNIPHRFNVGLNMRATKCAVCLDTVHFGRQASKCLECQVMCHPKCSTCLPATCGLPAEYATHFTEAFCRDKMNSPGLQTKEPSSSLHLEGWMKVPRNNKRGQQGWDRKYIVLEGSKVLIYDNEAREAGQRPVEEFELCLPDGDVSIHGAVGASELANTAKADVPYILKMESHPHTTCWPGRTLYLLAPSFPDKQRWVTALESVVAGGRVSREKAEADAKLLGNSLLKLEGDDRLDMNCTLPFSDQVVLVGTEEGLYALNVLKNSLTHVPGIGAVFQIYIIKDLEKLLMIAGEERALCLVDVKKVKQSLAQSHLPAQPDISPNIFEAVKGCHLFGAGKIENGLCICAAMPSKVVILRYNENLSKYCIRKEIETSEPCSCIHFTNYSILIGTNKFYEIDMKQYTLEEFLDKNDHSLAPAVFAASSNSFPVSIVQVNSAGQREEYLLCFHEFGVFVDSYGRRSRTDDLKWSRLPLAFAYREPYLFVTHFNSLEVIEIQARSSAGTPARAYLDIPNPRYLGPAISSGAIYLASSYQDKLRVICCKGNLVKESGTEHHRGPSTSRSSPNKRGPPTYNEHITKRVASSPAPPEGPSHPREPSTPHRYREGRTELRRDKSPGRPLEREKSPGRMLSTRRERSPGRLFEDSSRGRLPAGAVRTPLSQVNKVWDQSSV

CSNK1E = CSNK1E (Homo sapiens, UniProt P49674); details: cited from earlier work
TGFBR2 = TGFBR2 (Homo sapiens, UniProt P37173); details: cited from earlier work
Chain of TGFBR2 (P37173 23-567): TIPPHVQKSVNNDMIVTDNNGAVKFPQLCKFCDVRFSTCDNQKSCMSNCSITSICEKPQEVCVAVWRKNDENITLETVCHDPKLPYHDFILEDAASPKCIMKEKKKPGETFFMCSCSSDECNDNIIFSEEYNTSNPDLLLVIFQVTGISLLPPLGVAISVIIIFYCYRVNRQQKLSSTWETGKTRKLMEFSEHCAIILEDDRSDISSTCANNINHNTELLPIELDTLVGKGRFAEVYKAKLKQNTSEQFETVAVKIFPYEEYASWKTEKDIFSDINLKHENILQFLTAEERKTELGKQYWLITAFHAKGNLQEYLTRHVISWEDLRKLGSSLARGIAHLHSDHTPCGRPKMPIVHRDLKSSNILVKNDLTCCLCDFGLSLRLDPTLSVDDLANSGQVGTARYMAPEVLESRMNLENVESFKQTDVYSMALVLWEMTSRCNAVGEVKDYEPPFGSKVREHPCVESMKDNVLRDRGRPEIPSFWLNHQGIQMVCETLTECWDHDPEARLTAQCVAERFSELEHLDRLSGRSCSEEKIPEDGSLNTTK

MTOR = MTOR (Homo sapiens, UniProt P42345); details: cited from earlier work
PRKD3 = biological target: T2, PRKD3 (Homo sapiens, UniProt O94806); details: cited from earlier work
T2 sequence (O94806 1-890): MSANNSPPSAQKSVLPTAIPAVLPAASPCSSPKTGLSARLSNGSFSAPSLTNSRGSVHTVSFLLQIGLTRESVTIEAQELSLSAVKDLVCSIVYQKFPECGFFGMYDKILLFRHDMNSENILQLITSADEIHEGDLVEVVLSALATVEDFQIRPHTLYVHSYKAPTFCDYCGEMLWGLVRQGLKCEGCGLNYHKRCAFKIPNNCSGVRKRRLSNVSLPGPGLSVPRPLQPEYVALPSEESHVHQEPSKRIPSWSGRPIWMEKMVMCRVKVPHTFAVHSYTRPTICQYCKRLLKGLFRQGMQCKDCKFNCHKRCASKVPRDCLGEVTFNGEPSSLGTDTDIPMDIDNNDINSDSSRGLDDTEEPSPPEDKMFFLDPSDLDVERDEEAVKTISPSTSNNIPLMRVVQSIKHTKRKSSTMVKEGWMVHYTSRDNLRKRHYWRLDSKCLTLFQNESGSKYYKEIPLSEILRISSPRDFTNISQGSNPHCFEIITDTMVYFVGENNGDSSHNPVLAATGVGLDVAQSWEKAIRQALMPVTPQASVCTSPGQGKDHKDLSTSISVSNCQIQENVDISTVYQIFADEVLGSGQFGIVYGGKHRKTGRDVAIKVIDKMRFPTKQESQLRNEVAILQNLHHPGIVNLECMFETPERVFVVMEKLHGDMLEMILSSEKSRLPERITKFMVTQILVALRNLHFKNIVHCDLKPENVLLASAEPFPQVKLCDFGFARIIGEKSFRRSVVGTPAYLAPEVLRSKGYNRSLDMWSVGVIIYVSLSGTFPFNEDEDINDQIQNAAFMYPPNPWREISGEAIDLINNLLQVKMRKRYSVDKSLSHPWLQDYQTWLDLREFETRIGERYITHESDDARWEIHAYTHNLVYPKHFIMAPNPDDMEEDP

CDC42BPG/DMPK2 = CDC42BPG/DMPK2 (Homo sapiens, UniProt Q6DT37); details: cited from earlier work
Chain of CDC42BPG/DMPK2 (Q6DT37 whole entry): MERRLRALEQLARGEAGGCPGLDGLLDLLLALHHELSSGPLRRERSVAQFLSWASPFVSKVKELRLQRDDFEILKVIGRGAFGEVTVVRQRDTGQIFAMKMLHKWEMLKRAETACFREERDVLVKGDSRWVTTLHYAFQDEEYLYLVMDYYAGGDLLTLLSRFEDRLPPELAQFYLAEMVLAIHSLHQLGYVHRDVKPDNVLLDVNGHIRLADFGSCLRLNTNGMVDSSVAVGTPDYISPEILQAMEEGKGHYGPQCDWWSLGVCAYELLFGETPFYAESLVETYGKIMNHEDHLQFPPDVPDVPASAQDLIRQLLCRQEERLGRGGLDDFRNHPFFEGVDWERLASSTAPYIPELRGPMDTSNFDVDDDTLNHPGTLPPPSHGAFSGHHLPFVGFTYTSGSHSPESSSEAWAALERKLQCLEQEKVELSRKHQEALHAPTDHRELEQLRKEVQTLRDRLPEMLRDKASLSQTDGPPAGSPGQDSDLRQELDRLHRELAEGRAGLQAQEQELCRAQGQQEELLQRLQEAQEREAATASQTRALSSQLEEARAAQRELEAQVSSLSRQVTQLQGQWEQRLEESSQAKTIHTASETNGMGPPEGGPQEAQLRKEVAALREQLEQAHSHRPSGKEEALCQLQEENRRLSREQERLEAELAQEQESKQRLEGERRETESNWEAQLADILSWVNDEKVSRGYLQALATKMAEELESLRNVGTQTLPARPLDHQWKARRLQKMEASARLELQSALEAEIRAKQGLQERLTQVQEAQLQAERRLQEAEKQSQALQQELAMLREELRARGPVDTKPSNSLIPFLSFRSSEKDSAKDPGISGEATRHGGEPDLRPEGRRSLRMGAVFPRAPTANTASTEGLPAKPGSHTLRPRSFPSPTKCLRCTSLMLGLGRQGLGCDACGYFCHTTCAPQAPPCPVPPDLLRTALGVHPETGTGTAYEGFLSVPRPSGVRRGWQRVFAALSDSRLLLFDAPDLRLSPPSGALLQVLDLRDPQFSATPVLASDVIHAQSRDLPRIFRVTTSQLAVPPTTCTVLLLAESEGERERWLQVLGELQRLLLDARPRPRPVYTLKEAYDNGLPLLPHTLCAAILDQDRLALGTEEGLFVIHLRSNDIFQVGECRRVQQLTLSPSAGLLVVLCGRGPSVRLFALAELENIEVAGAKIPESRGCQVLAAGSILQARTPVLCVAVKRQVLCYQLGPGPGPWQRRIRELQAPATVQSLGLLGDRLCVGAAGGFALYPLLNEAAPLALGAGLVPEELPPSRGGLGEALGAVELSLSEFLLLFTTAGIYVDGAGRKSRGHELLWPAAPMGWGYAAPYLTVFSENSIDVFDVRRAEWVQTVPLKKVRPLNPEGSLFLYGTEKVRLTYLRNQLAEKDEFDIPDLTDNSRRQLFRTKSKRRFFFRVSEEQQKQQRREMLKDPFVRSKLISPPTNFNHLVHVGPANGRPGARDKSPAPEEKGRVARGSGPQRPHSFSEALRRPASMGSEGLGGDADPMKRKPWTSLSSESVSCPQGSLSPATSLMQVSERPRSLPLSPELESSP

ACVR1B = biological target: T3, ACVR1B (Homo sapiens, UniProt P36896); details: cited from earlier work
T3 sequence (P36896 24-505): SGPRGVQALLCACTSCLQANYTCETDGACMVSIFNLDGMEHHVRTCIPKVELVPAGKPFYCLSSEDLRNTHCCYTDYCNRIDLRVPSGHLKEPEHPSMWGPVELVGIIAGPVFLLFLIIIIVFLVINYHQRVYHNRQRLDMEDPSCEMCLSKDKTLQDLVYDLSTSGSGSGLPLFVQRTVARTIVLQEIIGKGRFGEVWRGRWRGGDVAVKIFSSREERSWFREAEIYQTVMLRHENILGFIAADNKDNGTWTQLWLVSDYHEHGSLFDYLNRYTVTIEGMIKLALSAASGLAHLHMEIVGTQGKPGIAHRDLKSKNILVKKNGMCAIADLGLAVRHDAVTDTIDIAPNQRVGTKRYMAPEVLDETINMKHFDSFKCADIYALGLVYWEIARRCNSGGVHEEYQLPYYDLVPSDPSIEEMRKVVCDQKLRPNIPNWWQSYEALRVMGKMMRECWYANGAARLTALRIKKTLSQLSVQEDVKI

PRKD1 = biological target: T4, PRKD1 (Homo sapiens, UniProt Q15139); details: cited from earlier work
T4 sequence (Q15139 1-912): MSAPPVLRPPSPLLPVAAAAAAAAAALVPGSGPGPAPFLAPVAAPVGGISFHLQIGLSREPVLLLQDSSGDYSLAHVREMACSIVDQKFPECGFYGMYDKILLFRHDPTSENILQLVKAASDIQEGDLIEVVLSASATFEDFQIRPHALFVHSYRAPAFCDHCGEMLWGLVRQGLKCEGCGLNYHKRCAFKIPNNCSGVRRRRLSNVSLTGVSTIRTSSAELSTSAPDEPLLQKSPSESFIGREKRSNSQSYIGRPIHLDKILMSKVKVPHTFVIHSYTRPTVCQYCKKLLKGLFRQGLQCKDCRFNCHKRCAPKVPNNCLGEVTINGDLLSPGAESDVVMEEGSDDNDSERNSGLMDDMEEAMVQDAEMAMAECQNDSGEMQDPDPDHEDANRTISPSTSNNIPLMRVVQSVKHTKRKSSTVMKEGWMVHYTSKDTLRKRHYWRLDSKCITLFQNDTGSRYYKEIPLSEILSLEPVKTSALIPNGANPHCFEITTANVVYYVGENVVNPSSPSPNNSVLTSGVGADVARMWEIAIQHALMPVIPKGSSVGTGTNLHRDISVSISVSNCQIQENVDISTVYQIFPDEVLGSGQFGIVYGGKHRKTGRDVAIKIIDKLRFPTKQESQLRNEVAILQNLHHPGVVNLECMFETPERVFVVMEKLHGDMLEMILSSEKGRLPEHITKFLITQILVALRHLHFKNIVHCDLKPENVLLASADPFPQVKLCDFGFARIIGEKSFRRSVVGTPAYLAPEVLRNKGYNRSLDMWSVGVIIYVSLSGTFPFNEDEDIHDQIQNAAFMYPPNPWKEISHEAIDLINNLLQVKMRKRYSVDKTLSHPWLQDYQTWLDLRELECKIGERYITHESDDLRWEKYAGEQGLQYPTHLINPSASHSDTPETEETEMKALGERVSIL

CDC42BPB/MRCKB = CDC42BPB/MRCKB (Homo sapiens, UniProt Q9Y5S2); details: cited from earlier work
JAK1(JH2) = biological target: T5, JAK1(JH2) (Homo sapiens, UniProt P23458); details: cited from earlier work
T5 construct: JAK1(JH2)
T5 sequence (P23458 583-855 limits assumed): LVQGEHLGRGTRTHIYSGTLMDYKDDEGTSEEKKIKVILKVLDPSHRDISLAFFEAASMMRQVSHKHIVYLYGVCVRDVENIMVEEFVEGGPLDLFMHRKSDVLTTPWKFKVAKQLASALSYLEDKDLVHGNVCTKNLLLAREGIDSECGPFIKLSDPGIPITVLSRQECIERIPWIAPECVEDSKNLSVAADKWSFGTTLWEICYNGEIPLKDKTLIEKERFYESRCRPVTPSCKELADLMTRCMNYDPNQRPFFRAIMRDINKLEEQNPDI

| Structure (SMILES) | Nuclear Count (SH-SY5Y cells [1]) | TFEB % (endogenous TFEB) [%] | Outcome (SH-SY5Y cells [2]) | TFE3 % (endogenous TFE3) [%] | DQ Intensity (SH-SY5Y cells [3]) | DQ Spot (SH-SY5Y cells [3]) | AK (SH-SY5Y cells [4]) | further results |
| --- | --- | --- | --- | --- | --- | --- | --- | --- |
| CCCC(=O)Nc1n[nH]c2ncc(-c3cccc4ccccc34)cc12 [SB-642057] | 59.85 | 5.52 | TOXIC | 14.05 | 126.93 | 107.10 | 230.70 |  |
| O=C(Nc1n[nH]c2nc(-c3cccc(O)c3)ccc12)C1CC1 [SB-711805] | 107.31 | 10.76 | TFE3 | 23.15 | 78.27 | 112.05 | 105.72 |  |
| O=C(Nc1n[nH]c2nc(-c3ccc(O)cc3)ccc12)C1CC1 [SB-710363] | 103.55 | 15.49 | DQ Only | 18.16 | 87.11 | 130.75 | 133.76 |  |
| COc1ccc(C2=C(Nc3cccc(O)c3)C(=O)NC2=O)cc1 [UNC10225299A] | 77.10 | 8.50 | DQ Only | 15.17 | 174.21 | 115.16 | 102.75 |  |
| Nc1n[nH]c2ncc(-c3ccccc3)cc12 [SB-517081] | 74.04 | 4.88 | DQ Only | 10.19 | 121.05 | 122.46 | 82.09 |  |
| Fc1ccc(-c2ncn(C3CCNCC3)c2-c2ccnc(Oc3ccc(-c4ccccc4)cc3)n2)cc1 [UNC10225377A] | 106.99 | 13.41 | TFE3 + DQ Int | 24.21 | 170.99 | 76.67 | 108.76 |  |
| Cc1cccc(-c2nc(Nc3ccc4[nH]ncc4c3)c3ccccc3n2)n1 [GW857175] |  |  |  |  |  |  |  | KINOMEscan binding CSNK1D (CSNK1D): 28%; KINOMEscan binding PRKD2 (PRKD2): 99.9%; KINOMEscan binding BMPR1B (BMPR1B): 34%; KINOMEscan binding PIKFYVE (PIKFYVE): 85%; KINOMEscan binding CIT (CIT): 9%; KINOMEscan binding CSNK1E (CSNK1E): 28%; KINOMEscan binding TGFBR2 (TGFBR2): 0%; KINOMEscan binding MTOR (MTOR): 0%; KINOMEscan binding PRKD3 (PRKD3): 98.1%; KINOMEscan binding CDC42BPG/DMPK2 (CDC42BPG/DMPK2): 72%; KINOMEscan binding ACVR1B (ACVR1B): 100%; KINOMEscan binding PRKD1 (PRKD1): 99.8%; KINOMEscan binding CDC42BPB/MRCKB (CDC42BPB/MRCKB): 72%; KINOMEscan binding JAK1(JH2) (JAK1(JH2)): 83% |
